# Reference: patent US8536212B2, “Protective agent for retinal nerve or optic nerve” (Sanwa Kagaku Kenkyusho Co., Ltd., priority 2007, dated 2013)
# Test system: retinal ganglion cells
# Test: Mouse ophthalmic artery occlusion model: retinal ischemia 2 hours, reperfusion 22 hours, survival of retinal ganglion cells
# Assay type: in vivo, C57BL/6N normal mice (wild type mice)
# Details: for The number of surviving retinal ganglion cells per 1 μm of retina section, average ± SEM: drug given by forced intragastric administration 15 minutes before reperfusion
# Experimental: In the experiment, mouse models with acute ophthalmic artery infarction, namely, mouse models with ophthalmic artery infarction were used. In Experiment 1, eight to ten-week-old C57BL/6N normal mice (wild type mice) were used and the therapeutic efficacy of fidarestat as the compound with aldose reductase (AR) inhibiting activity was evaluated. Here, those mice were divided into two groups: a control group to which only vehicle was administered and a fidarestat administered group to which fidarestat was administered. In Experiment 2, eight to ten-week-old C57BL/6N normal mice (wild type mice:AR^+/+ mice) and AR gene-deficient mice (AR^−/− mice) were used and the role of AR was examined. Here, those mice were divided into two groups: a wild type mouse group (AR^+/+ mice) and an AR gene-deficient mouse group (AR^−/− mice) and a drug administered group was not used.
# Used mice (24 to 28 g of body weight) were subjected to intraluminal suture with nylon monofilament under gas anesthesia. A nylon filament was inserted into the right internal carotid artery at the bifurcation of the middle cerebral artery and the anterior cerebral artery from the common carotid artery. The mice were subjected to retinal ischemia in the right eye. The filament was pulled 2 hours after the ischemia and reperfusion was performed for 22 hours. On the other hand, left eye was evaluated as a normal control eye. In order to confirm ischemia or reperfusion, relative cerebral blood flow (rCBF) in the middle cerebral artery was monitored with a laser Doppler meter during the experiment. Decrease in the rCBF of 75% or more was defined as middle cerebral artery ischemia. The drug was administered 15 minutes before reperfusion starts by forced intragastric administration. At the end of the experiment, the isolated eyes were fixed in 4% paraformaldehyde at 4° C. overnight. The retinal ganglion cell layer was subjected to hematoxylin and eosin stain. Then, the number of surviving retinal ganglion cells was observed and measured. […] All cells of the retina ganglionic layer in each retina section were measured. Further, all measurements were performed by a blind fashion.
structure (smiles),measurement,setting,value
"NC(=O)[C@@H]1C[C@]2(NC(=O)NC2=O)c2cc(F)ccc2O1 [Fidarestat, (2S,4S)-6-fluoro-2′,5′-dioxospiro[chroman-4,4′-imidazolidine]-2-carboxamide]","The number of surviving retinal ganglion cells per 1 μm of retina section, average ± SEM","side of no retinal ischemia (left eye, normal control eye)",23 ± 1 per 1 μm of retina section
same,"The number of surviving retinal ganglion cells per 1 μm of retina section, average ± SEM","side of retinal ischemia (right eye), 2 hours ischemia and 22 hours reperfusion, P<0.001 vs control group",21 ± 1^†††^ per 1 μm of retina section
same,Pathological finding showing retinal ganglion cell death (hematoxylin and eosin stain),"side of retinal ischemia or side of no retinal ischemia, 2 hours ischemia, 22 hours reperfusion (FIG. 1: D3, D4)",not observed
same,Number of surviving retinal ganglion cells on the side of retinal ischemia compared with the control group,"side of retinal ischemia, P<0.001",significantly increased
